The values that follow come from patent publication US20210059977A1, “COMBINATION THERAPIES FOR THE TREATMENT OF AMYOTROPHIC LATERAL SCLEROSIS AND RELATED DISORDERS” (The General Hospital Corporation, priority 2018, published 2021).

Molecules are shown by their SMILES.

Test [1] is described as follows: Body weight of TgSOD1 mice. The test is classed as in vivo. The settings on record: TgSOD1-Cromolyn vs TgSOD1-Vehicle. As for the experimental part:
Beginning at P50, weight and neurological score (using the ALS TDI criteria) (Hatzipetros, T., et al. (2015). “A Quick Phenotypic Neurological Scoring System for Evaluating Disease Progression in the SOD1-G93A Mouse Model of ALS.” J Vis Exp(104); Leitner M., et. al. (2009). “Working with ALS mice: Guidelines for preclinical testing & colony management.” The Jackson Laboratory) were recorded for each mouse every 5 days until death or euthanasia. ALS TDI criteria are as follows: • Score of 0: Full extension of hind legs away from lateral midline when mouse is suspended by its tail, and mouse can hold this for two seconds, suspended two to three times. • Score of 1: Collapse or partial collapse of leg extension towards lateral midline (weakness) or trembling of hind legs during tail suspension. • Score of 2: Toes curl under at least twice during walking of 12 inches, or any part of foot is dragging along cage bottom/table. • Score of 3: Rigid paralysis or minimal joint movement, foot not being used for generating forward motion. • Score of 4: Mouse cannot right itself within 15 seconds after being placed on either side. *Mice were euthanized upon obtaining a score of 4. […]

Test [2] concerns SOD1^G93A mouse model. Briefly: Gait analysis (stride length and width). The test is classed as in vivo, mice. The settings on record: 6.3 mg/kg i.p. As to the method:
Gait Analysis Manual gait analysis was performed using a limb painting procedure similar to previous studies. Briefly, mice were first trained to traverse a horizontal corridor leading directly into their home cage by gentle nudges in the appropriate direction. On test days the bottoms of their hindlimbs were painted, by brushing with non-toxic food dye (Fisher Scientific), and the mice were allowed to walk the path to their home cage on a piece of paper. Three trials were performed at each experimental time point (P70, P90, P110, P130, P150). Stride length and width was determined by measuring the distance between the same points, on the ball mount region of the footprint, in two consecutive footprints and calculated from 2-3 hindpaw strides. Mean data from 4-6 strides across three trials was calculated.
(§1) 149 male and female age- and litter-matched transgenic (Tg) SOD1^G93A and wild-type (Wt) SOD1^G93A mice were used with the following breakdown: Females (19 WtSOD1-Vehicle, 17 WtSOD1-Cromolyn, 19 TgSOD1-Vehicle, and 17 TgSOD1-Cromolyn) and Males (18 WtSOD1-Vehicle, 21 WtSOD1-Cromolyn, 21 TgSOD1-Vehicle, 17 TgSOD1-Cromolyn).

The test system of test [3] is SOD1^G93A mouse model. The test is described as follows: Age at paresis onset. The test is classed as in vivo, mice. As for the experimental part:
Beginning at P50, weight and neurological score (using the ALS TDI criteria) (Hatzipetros, T., et al. (2015). “A Quick Phenotypic Neurological Scoring System for Evaluating Disease Progression in the SOD1-G93A Mouse Model of ALS.” J Vis Exp(104); Leitner M., et. al. (2009). “Working with ALS mice: Guidelines for preclinical testing & colony management.” The Jackson Laboratory) were recorded for each mouse every 5 days until death or euthanasia. ALS TDI criteria are as follows: • Score of 0: Full extension of hind legs away from lateral midline when mouse is suspended by its tail, and mouse can hold this for two seconds, suspended two to three times. • Score of 1: Collapse or partial collapse of leg extension towards lateral midline (weakness) or trembling of hind legs during tail suspension. • Score of 2: Toes curl under at least twice during walking of 12 inches, or any part of foot is dragging along cage bottom/table. • Score of 3: Rigid paralysis or minimal joint movement, foot not being used for generating forward motion. • Score of 4: Mouse cannot right itself within 15 seconds after being placed on either side. *Mice were euthanized upon obtaining a score of 4.
as §1

Test [4] deals with lumbar spinal cord motor neurons. The test is described as follows: Motor neuron quantification (H&E). The settings on record: TgSOD1-Cromolyn vs TgSOD1-Vehicle; p=0.0033. Type of test: in vivo, mice. As for the experimental part:
Longitudinal sections (10 μm) of the lumbar spinal cord were cut from fresh frozen tissue. Hematoxylin and eosin (H&E) staining was performed on the tissue sections as previously described. Within the region containing the ventral horn, all motor neurons are counted for three individual sections per animal (each separated by […]) to cover the areas of highest motor neuron density within the ventral horn. All counting was performed by an individual blinded to the genotypes. Images were acquired using a Zeiss microscope 20× objective (0.8 NA) and processed with Metamorph image analysis software (Molecular Devices).
as §1

Test [5] deals with pro-inflammatory cytokines and chemokines in spinal cord. Briefly: Meso Scale Discovery multi-spot cytokine assay, spinal cord. The test is classed as in vivo, mice. Particulars: TgSOD1-Cromolyn vs TgSOD1-Vehicle; p=0.0273. As to the method:
Spinal cord frozen tissue was homogenized in ice-cold RIPA buffer (Thermo Fisher Scientific, #8990) supplemented with protease inhibitor cocktail (Thermo Fisher Scientific, #78430). Samples were centrifuged at 45,000 g for 30 minutes at 4° C. using an Optima TL ultracentrifuge and a TLA 120.2 rotor (Beckman Coulter). Expression levels of 10 pro-inflammatory cytokines and chemokines were assessed in the supernatants derived from spinal cord tissue or in the plasma, using an electrochemiluminescence-based multi-array method and MESO Quickplex SQ 120 system (MSD, Rockville, Md., USA). The 96-well V-PLEX Proinflammatory Mouse 1 Kit (Meso Scale Discovery, #K15048D) was used to measure simultaneously IFN-γ, IL-1β, IL-2, IL-4, IL-5, IL-6, CXCL1/KC/GRO, IL-10, IL-12, p70, and TNFα, following the manufacturer's instructions. Briefly, samples were diluted in the calibrator and added to the plate coated with an array of cytokine capture antibodies. […] The plate was washed with the wash buffer and the 2× Read Buffer T was added. The signal was immediately measured on a MESO QuickPlex SQ 120 instrument and was analyzed using the DISCOVERY WORKBENCH 4.0 software (Meso Scale Diagnostics, LLC., Rockville, Md., USA). Protein concentrations in the supernatants or the plasma samples were measured using the Pierce BCA protein assay kit (Thermo Scientific). […]

For a further test, the system named is MCP-1. The test is described as follows: CCL2/MCP-1 ELISA assay. Type of test: in vivo, mice. As to the method: Spinal cord tissue was homogenized, and supernatants were derived as described in the section related to the Meso Scale Discovery cytokine assay. MCP-1 levels were measured in the supernatants generated from spinal cord tissue or in the plasma using the 96-well Mouse CCL2/JE/MCP-1 Quantikine ELISA Kit (R&D systems, #MJE00B), following the manufacturer's instructions. Briefly, samples and diluted standards were added to the plate coated with MCP-1-specific antibody. Samples were incubated in the plate for 2 hours on a shaker at room temperature, followed by washes with the wash buffer provided in the kit. Subsequently, horseradish peroxidase conjugated antibody against MCP-1 was added to each well and incubated for 2 hours at room temperature on the shaker. The plate was washed with the wash buffer and incubated with Substrate solution for 30 minutes at room temperature. Next, Stop solution was added and the signal was read on a Microplate reader (Synergy 2, Biotek Instruments). The optical density was measured at […] and was corrected with the optical density measured at 540 nm. MCP-1 levels in the samples were calculated based on the MCP-1 standard curve. Protein concentrations in the supernatants were measured by the Pierce BCA protein assay kit (Thermo Scientific). Values in the graphs represent levels of MCP-1 normalized to the corresponding protein concentrations. […]

Another test concerns the target alpha-synuclein peptides (Homo sapiens, UniProt P37840). Particulars: cited from earlier work.

With `O=C(O)c1cc(=O)c2c(OCC(O)COc3cccc4oc(C(=O)O)cc(=O)c34)cccc2o1` [cromolyn, cromolyn sodium], the body weight entry in test [1] (6.3 mg/kg i.p. once daily 5 days per week from P60, overall) is on record as “did not impact body weight”; in test [1] (6.3 mg/kg i.p., all mice, at P130), “significant improvement in body weight”. In the test on SOD1^G93A mouse model [2] (TgSOD1 mice), the stride length result is listed as “no effect on stride length”. The stride width result in the test with SOD1^G93A mouse model [2] (all groups, two-way ANOVA) was “no effect of treatment”. The “median age of onset (age at paresis onset)” value in the test on SOD1^G93A mouse model [3] (TgSOD1-Cromolyn group, all mice, 6.3 mg/kg i.p., vehicle group 99 days) stood at 107 days. For the same compound, the “onset of motor symptoms as measured by age at paresis onset” value with SOD1^G93A mouse model [3] (all TgSOD1 mice, Mantel-Cox test, p<0.0001) is on record as “significant effect of cromolyn treatment on the onset of motor symptoms”. Besides, the “onset of motor symptoms” value was “significant delay in the onset of motor symptoms” with SOD1^G93A mouse model [3] (female mice, Mantel-Cox test, p=0.0009) and “significant delay in the onset of motor symptoms” with SOD1^G93A mouse model [3] (male mice, Mantel-Cox test, p=0.0193). Moreover, in test [4], the “motor neuron survival (lumbar spinal cord motor neuron counts)” value is reported as “significantly increased”. The “CXCL1 levels in spinal cord” value in test [5] is “significant decrease”. Moreover, the “TNFα levels in spinal cord” value in test [5] is reported as “significant decrease”. Besides, the “MCP-1 levels in the spinal cord” value with MCP-1 (TgSOD1-Cromolyn vs TgSOD1-Vehicle) is “no effect of cromolyn treatment on MCP-1 levels”. The “MCP-1 levels in the plasma” value in the test with MCP-1 (any of the groups) was “not altered”. For the same compound, on alpha-synuclein peptides, the “binding to alpha-synuclein peptides and polymerization” value was “inhibiting their polymerization to higher order aggregates”.
